For data set [1], the system named is Blumeria graminis f sp. hordei. Put plainly: Blumeria graminis test (barley)/protective. It is filed as in vivo. As to conditions: protective spray, application rate 500 ppm, evaluation 7 days after inoculation, 0% = control, 100% = no infection. As for the experimental part:
Solvent: 49 parts by weight of N,N-dimethylacetamide Emulsifier: 1 part by weight of alkylaryl polyglycol ether To produce an appropriate active ingredient formulation, 1 part by weight of active ingredient is mixed with the specified amounts of solvent and emulsifier, and the concentrate is diluted with water to the desired concentration. To test for protective activity, young plants are sprayed with the formulation of active ingredient at the stated application rate. After the spray coating has dried on, the plants are dusted with spores of Blumeria graminis f sp. hordei. The plants are placed in a greenhouse at a temperature of about 18° C. and a relative air humidity of about 80% to promote the development of mildew pustules. Evaluation follows 7 days after the inoculation. 0% means an efficacy which corresponds to that of the control, whereas an efficacy of 100% means that no infection is observed. In this test, the following inventive compounds, at an active ingredient concentration of 500 ppm, show an efficacy of 70% or more.

The next data set deals with Leptosphaeria nodorum. In words: Leptosphaeria nodorum test (wheat)/protective. The data set is classed as in vivo. Particulars: protective spray, application rate 500 ppm, evaluation 8 days after inoculation, 0% = control, 100% = no infection. As for the experimental part:
(§1) Solvent: 49 parts by weight of N,N-dimethylacetamide
(§2) Emulsifier: 1 part by weight of alkylaryl polyglycol ether
(§3) To produce an appropriate active ingredient formulation, 1 part by weight of active ingredient is mixed with the specified amounts of solvent and emulsifier, and the concentrate is diluted with water to the desired concentration. To test for protective activity, young plants are sprayed with the formulation of active ingredient at the stated application rate. After the spray coating has dried on, the plants are sprayed with spores with a spore suspension of Leptosphaeria nodorum. The plants remain in an incubation cabin at 20° C. and 100% relative air humidity for 48 hours. The plants are placed in a greenhouse at a temperature of about 22° C. and a relative air humidity of about 80%. Evaluation follows 8 days after the inoculation. 0% means an efficacy which corresponds to that of the control, whereas an efficacy of 100% means that no infection is observed. In this test, the following inventive compounds, at an active ingredient concentration of 500 ppm, show an efficacy of 70% or more.

Another data set relates to Puccinia triticina. Put plainly: Puccinia triticina test (wheat)/protective. As to conditions: protective spray, application rate 500 ppm, evaluation 8 days after inoculation, 0% = control, 100% = no infection. It is filed as in vivo. As for the experimental part: as §1, §2
as §3, with “Puccinia triticina.” for “Leptosphaeria nodorum.”, “20°” for “22°”

Data set [2] is described as follows: log P by HPLC on reversed-phase columns (C18), EEC Directive 79/831 Annex V.A8. The data set is classed as physicochemical. As to conditions: method [a]: LC-MS, acidic range, pH 2.7, 0.1% aqueous formic acid / acetonitrile, gradient 10% to 95% acetonitrile. Here is the method:
The log P values were measured in accordance with EEC Directive 79/831 Annex V.A8 by HPLC (High Performance Liquid Chromatography) using reversed-phase columns (C18) by the following methods: [a] The LC-MS determination in the acidic range is effected at pH 2.7 with 0.1% aqueous formic acid and acetonitrile (contains 0.1% formic acid) as eluents; linear gradient from 10% acetonitrile to 95% acetonitrile.

The subject of the next data set is Venturia inaequalis. Put plainly: Venturia test (apple)/protective. As to conditions: protective spray, application rate 100 ppm, evaluation 10 days after inoculation, 0% = control, 100% = no infection. The data set is classed as in vivo. Here is the method:
Solvent: 24.5 parts by weight of acetone • 24.5 parts by weight of dimethylacetamide Emulsifier: 1 part by weight of alkylaryl polyglycol ether To produce an appropriate active ingredient formulation, 1 part by weight of active ingredient is mixed with the specified amounts of solvent and emulsifier, and the concentrate is diluted with water to the desired concentration. To test for protective activity, young plants are sprayed with the active ingredient formulation at the stated application rate. After the spray coating has dried on, the plants are inoculated with an aqueous conidia suspension of the apple scab pathogen Venturia inaequalis and then remain in an incubation cabin at about 20° C. and 100% relative air humidity for 1 day. The plants are then placed in a greenhouse at about 21° C. and a relative air humidity of about 90%. Evaluation follows 10 days after the inoculation. 0% means an efficacy which corresponds to that of the control, whereas an efficacy of 100% means that no infection is observed. In this test, the following inventive compounds, at an active ingredient concentration of 100 ppm, show an efficacy of 70% or more.

The next data set deals with Uromyces appendiculatus. Put plainly: Uromyces test (bean)/protective. It is filed as in vivo. Particulars: protective spray, application rate 100 ppm, evaluation 10 days after inoculation, 0% = control, 100% = no infection. Here is the method:
Solvent: 24.5 parts by weight of acetone • 24.5 parts by weight of dimethylacetamide Emulsifier: 1 part by weight of alkylaryl polyglycol ether To produce an appropriate active ingredient formulation, 1 part by weight of active ingredient is mixed with the specified amounts of solvent and emulsifier, and the concentrate is diluted with water to the desired concentration. To test for protective activity, young plants are sprayed with the active ingredient formulation at the stated application rate. After the spray coating has dried on, the plants are inoculated with an aqueous spore suspension of the bean rust pathogen Uromyces appendiculatus and then remain in an incubation cabin at about 20° C. and 100% relative air humidity for 1 day. The plants are then placed in the greenhouse at about 21° C. and a relative air humidity of about 90%. Evaluation follows 10 days after the inoculation. 0% means an efficacy which corresponds to that of the control, whereas an efficacy of 100% means that no infection is observed. In this test, the following inventive compounds, at an active ingredient concentration of 100 ppm, show an efficacy of 70% or more.

As to `CC(C)(C)C(O)(COc1ccc(Br)cc1Cl)c1cncs1` (stereo not drawn) [Compound No. 2], the “Efficacy (%)” value in data set [1] came to 100%; with Leptosphaeria nodorum, 92%; in the data set with Puccinia triticina it was 95%.
The corresponding values for `CC(C)(C)C(O)(COc1ccc(Br)cc1F)c1cncs1` (stereo not drawn) [Compound No. 3] are 100%, 100% and 100%.
Consider `CC(C)(C)C(O)(Cc1ccc(F)cc1F)c1cncs1` (stereo not drawn) [Compound No. 31], for which, in data set [2] (reversed-phase HPLC column (C18)), the chromatographic logP (in general, lipophilicity estimated from chromatographic retention) amounted to 3.04.
On to `CC(C)(C)C(O)(COc1ccc(I)cc1F)c1cncs1` (stereo not drawn) [compound 1], for which the “Efficacy (%)” value is 100% in data set [1]; 97% with Venturia inaequalis; 100% in the data set on Uromyces appendiculatus; 100% in the data set on Leptosphaeria nodorum; 100% with Puccinia triticina.
For `CC(C)(C)C(O)(COc1ccc(I)cc1Cl)c1cncs1` (stereo not drawn) [compound 5], the logP result in data set [2] is “logP 4.14^[a]; [M + H]^+ = 438”.
Take `CC1(C(O)(COc2cc(Br)cc(Br)c2)c2cncs2)CC1` (stereo not drawn) [compound 7]: the logP result in data set [2] is “logP 4.03^[a]; [M + H]^+ = 434”.
As to `Cc1cc(I)ccc1OCC(O)(c1cncs1)C1(C)CC1` (stereo not drawn) [compound 10], the logP entry in data set [2] was “logP 3.88^[a]; [M + H]^+ = 416”.
On the same count and under the same terms, for `CC1(C(O)(COc2ccc(Br)c(F)c2)c2cncs2)CC1` (stereo not drawn) [compound 12] the value was “logP 3.30^[a]; [M + H]^+ = 372, 374”; for `CC1(C(O)(COc2ccc(Br)c(C(F)(F)F)c2)c2cncs2)CC1` (stereo not drawn) [compound 13], “logP 3.70^[a]; [M + H]^+ = 422, 424”.
Turning to `COc1cc(OC(F)(F)F)ccc1OCC(O)(c1cncs1)C(C)(C)C` (stereo not drawn) [compound 14], the logP result in data set [2] is “logP 3.70^[a]; [M + H]^+ = 392”.
Same read-out and setting: for `CC1(C(O)(COc2ccc(I)c([N+](=O)[O-])c2)c2cncs2)CC1` (stereo not drawn) [compound 15] the value was “logP 3.11^[a]; [M + H]^+ = 447”; for `CC(C)(C)C(O)(COc1ccc(SC(F)(F)F)c(F)c1)c1cncs1` (stereo not drawn) [compound 16], “logP 3.96^[a]; [M + H]^+ = 396”; for `Cc1cc(OCC(O)(c2cncs2)C(C)(C)C)ccc1S(C)(=O)=O` (stereo not drawn) [compound 17], “logP 2.21^[a]; [M + H]^+ = 370”.
The same measure, in the same setting: for `Cc1cc(OCC(O)(c2cncs2)C(C)(C)C)ccc1[S+](C)[O-]` (stereo not drawn) [compound 18] the value was “logP 1.90^[a]; [M + H]^+ = 354”; for `Cc1cc(S(=O)(=O)C(F)(F)F)ccc1OCC(O)(c1cncs1)C(C)(C)C` (stereo not drawn) [compound 19], “logP 3.63^[a]; [M + H]^+ = 424”; for `COc1cc(S(=O)(=O)C(F)(F)F)ccc1OCC(O)(c1cncs1)C(C)(C)C` (stereo not drawn) [compound 20], “logP 3.37^[a]; [M + H]^+ = 440”.
On the same count and under the same terms, under `CC(C)(C)C(O)(COc1ccc(SC(F)(F)F)c(Cl)c1)c1cncs1` (stereo not drawn) [compound 21] stands “logP 4.31^[a]; [M + H]^+ = 412”; under `Cc1cc(OCC(O)(c2cncs2)C(C)(C)C)ccc1SC(F)(F)F` (stereo not drawn) [compound 22], “logP 4.35^[a]; [M + H]^+ = 392”.
For the molecule `Cc1cc(SC(F)(F)F)ccc1OCC(O)(c1cncs1)C(C)(C)C` (stereo not drawn) [compound 23], the logP result in data set [2] was “logP 4.43^[a]; [M + H]^+ = 392”.
The same measure, in the same setting: under `CC(C)(C)C(O)(COc1ccc(OC(F)(F)F)c(Cl)c1)c1cncs1` (stereo not drawn) [compound 24] stands “logP 4.02^[a]; [M + H]^+ = 396”; under `Cc1cc(Cl)ccc1OCC(O)(c1cncs1)C(C)(C)C` (stereo not drawn) [compound 25], “logP 3.77^[a]; [M + H]^+ = 326”; under `CC(C)(C)C(O)(COc1ccc(Cl)cc1F)c1cncs1` (stereo not drawn) [compound 26], “logP 3.37^[a]; [M + H]^+ = 330”.
Take `Cc1cc(OCC(O)(c2cncs2)C(C)(C)C)ccc1Cl` (stereo not drawn) [compound 27]: the logP entry in data set [2] is “logP 3.74^[a]; [M + H]^+ = 326”.
On the same count and under the same terms, for `CSc1ccc(OCC(O)(c2cncs2)C(C)(C)C)cc1C` (stereo not drawn) [compound 28] the value was “logP 3.63^[a]; [M + H]^+ = 338”; for `CC(C)(C)C(O)(COc1ccc(OC(F)(F)F)cc1Cl)c1cncs1` (stereo not drawn) [compound 29], “logP 4.10^[a]; [M + H]^+ = 396”; for `CC1(C(O)(COc2ccc(Br)cc2F)c2cncs2)CC1` (stereo not drawn) [compound 32], “logP 3.32^[a]; [M + H]+ = 372, 374”.
As for `CC(C)(C)C(O)(COc1ccc(Cl)cc1Cl)c1cncs1` (stereo not drawn) [compound 33], the logP entry in data set [2] is “logP 3.84^[a]”.
The same measure, in the same setting: under `CC(C)(C)C(O)(COc1ccc(F)cc1F)c1cncs1` (stereo not drawn) [compound 34] stands “logP 2.98^[a]”.
Take `COc1cc(Br)ccc1OCC(O)(c1cncs1)C1(C)CC1` (stereo not drawn) [compound 35]: in data set [2], the logP result is “logP 3.26^[a]”.
For the molecule `COc1cc(OCC(O)(c2cncs2)C2(C)CC2)ccc1Br` (stereo not drawn) [compound 36], the logP entry in data set [2] is “logP 3.16^[a]”.
Still for that read-out and setting: under `CC(C)(C)C(O)(COc1ccc(Cl)cc1C(F)(F)F)c1cncs1` (stereo not drawn) [compound 37] stands “logP 3.96^[a]”; under `CC(C)(C)C(O)(COc1ccc(Cl)c(Cl)c1)c1cncs1` (stereo not drawn) [compound 39], “logP 3.72^[a]”.
With `CC(C)(C)C(O)(COc1ccc(OC(F)(F)F)c(Br)c1)c1cncs1` (stereo not drawn) [compound 41], in data set [2], the logP result was “logP 4.12^[a]”.
The same measure, in the same setting: for `Cc1cc(OC(F)(F)F)ccc1OCC(O)(c1cncs1)C(C)(C)C` (stereo not drawn) [compound 42] the value was “logP 4.12^[a]”.

For the origin of these results see patent US8436189B2, “Heterocyclic alkanol derivatives” (Bayer Intellectual Property GmbH, priority 2010, dated 2013).
